Assay results reported in ChEMBL document CHEMBL1909046, “DrugMatrix in vitro pharmacology data”.

Tests used:
[1] = target: Voltage-gated inwardly rectifying potassium channel KCNH2 (Homo sapiens, UniProt Q12809); conditions: hek293; also: in other assays of this panel Not Active means under 50% inhibition at 10 µM
Adenosine receptor A3 = target: T1, Adenosine receptor A3 (Homo sapiens, UniProt P0DMS8); format: cell membranes, CHO-K1, Membrane;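 also: radioligand binding assay with AB-MECA serving as the labeled ligand; in other assays of this panel Not Active means under 50% inhibition at 10 µM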
T1 sequence (P0DMS8 whole entry): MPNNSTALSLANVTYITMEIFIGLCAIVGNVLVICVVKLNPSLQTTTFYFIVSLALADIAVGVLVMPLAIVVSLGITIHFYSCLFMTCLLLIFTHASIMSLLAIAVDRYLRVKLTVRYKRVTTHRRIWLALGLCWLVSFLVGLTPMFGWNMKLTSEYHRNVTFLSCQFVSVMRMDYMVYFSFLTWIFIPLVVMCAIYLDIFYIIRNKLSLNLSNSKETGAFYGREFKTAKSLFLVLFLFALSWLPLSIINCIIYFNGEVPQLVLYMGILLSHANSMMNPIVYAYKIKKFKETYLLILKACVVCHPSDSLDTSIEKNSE

[2] = target: Sodium-dependent noradrenaline transporter (Homo sapiens, UniProt P23975); test: DRUGMATRIX: Norepinephrine Transporter radioligand binding (ligand: [125I] RTI-55); format: cell membranes, MDCK, Membrane; conditions: Not Active = under 50% inhibition at 10 µM
Sodium-dependent noradrenaline transporter, sequence (P23975 whole entry): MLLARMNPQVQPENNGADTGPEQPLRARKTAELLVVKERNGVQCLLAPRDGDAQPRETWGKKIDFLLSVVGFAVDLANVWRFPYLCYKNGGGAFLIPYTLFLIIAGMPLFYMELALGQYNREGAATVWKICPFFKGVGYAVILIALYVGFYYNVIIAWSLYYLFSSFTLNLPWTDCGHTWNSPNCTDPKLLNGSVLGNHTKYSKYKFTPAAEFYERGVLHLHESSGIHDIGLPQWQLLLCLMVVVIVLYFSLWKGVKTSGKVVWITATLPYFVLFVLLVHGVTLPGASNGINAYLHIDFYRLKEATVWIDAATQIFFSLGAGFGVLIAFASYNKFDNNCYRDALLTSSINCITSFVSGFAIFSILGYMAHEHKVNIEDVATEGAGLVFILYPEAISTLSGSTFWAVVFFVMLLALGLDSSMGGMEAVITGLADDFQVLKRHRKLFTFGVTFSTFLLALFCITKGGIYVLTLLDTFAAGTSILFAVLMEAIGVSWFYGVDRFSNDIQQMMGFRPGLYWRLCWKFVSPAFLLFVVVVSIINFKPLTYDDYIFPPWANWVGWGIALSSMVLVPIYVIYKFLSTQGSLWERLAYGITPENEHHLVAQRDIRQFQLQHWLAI

Cytochrome P450 2C9 = Cytochrome P450 2C9 (Homo sapiens, UniProt P11712); conditions: bti-tn-5b1-4; also: in other assays of this panel Not Active means under 50% inhibition at 10 µM
Cytochrome P450 2C9, sequence (P11712 whole entry): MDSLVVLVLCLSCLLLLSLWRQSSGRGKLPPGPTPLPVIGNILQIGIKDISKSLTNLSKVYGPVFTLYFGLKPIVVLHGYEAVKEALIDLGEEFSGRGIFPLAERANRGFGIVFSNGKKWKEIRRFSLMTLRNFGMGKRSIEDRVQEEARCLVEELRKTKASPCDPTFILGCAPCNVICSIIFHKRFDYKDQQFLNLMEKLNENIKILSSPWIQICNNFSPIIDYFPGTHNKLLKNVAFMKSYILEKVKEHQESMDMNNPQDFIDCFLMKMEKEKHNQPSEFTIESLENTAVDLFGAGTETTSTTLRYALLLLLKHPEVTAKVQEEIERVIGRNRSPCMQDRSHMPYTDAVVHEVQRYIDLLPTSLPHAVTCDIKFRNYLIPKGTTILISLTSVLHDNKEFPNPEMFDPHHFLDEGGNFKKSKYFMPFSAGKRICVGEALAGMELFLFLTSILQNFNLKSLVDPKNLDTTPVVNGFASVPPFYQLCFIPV

Melanocortin receptor 3 = Melanocortin receptor 3 (Homo sapiens, UniProt P41968); format: cell membranes, HEK293, Membrane; conditions: hek293; also: in other assays of this panel Not Active means under 50% inhibition at 10 µM
Melanocortin receptor 3, sequence (P41968 whole entry): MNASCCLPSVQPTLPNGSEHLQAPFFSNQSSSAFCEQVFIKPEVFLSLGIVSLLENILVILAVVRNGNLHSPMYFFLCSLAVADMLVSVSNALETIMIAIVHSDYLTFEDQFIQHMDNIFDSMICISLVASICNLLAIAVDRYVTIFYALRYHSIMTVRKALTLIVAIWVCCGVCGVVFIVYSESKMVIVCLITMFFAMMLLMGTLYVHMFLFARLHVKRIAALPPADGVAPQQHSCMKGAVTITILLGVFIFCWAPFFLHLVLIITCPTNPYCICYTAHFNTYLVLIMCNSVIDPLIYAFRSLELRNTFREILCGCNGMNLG

[3] = target: T2, Nitric oxide synthase, inducible (Mus musculus, UniProt P29477); set-up: species or system Escherichia coli
T2 sequence (P29477 whole entry): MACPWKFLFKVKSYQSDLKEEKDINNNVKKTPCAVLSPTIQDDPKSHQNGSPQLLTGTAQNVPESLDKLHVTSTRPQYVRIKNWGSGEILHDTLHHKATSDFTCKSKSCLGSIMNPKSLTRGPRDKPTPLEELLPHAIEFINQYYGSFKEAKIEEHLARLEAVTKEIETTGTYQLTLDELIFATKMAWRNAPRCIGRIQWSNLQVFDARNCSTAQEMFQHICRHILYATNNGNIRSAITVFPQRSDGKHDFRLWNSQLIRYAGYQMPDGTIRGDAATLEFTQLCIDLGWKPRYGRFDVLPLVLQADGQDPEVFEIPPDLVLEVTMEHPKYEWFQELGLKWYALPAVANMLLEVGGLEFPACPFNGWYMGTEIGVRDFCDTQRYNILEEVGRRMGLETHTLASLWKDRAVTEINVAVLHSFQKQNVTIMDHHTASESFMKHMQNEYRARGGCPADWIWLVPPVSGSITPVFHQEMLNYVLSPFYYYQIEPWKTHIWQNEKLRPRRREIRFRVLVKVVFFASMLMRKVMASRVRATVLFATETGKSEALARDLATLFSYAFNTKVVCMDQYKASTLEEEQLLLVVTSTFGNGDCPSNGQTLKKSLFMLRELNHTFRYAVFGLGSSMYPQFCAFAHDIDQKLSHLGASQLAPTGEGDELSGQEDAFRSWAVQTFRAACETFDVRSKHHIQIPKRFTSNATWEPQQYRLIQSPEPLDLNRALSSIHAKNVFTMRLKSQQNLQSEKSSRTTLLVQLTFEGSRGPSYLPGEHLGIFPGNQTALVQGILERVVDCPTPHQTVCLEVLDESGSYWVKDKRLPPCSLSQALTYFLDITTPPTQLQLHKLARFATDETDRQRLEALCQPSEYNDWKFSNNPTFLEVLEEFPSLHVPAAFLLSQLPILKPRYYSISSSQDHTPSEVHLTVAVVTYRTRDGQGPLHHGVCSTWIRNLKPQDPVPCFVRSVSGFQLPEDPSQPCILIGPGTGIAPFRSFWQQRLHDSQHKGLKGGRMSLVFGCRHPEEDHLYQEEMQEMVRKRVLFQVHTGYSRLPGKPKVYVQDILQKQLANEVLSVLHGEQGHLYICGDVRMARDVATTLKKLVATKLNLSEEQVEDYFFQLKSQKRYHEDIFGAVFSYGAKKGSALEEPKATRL

D(4) dopamine receptor = target: T3, D(4) dopamine receptor (Homo sapiens, UniProt P21917); test: DRUGMATRIX: Dopamine D4.2 radioligand binding (ligand: [3H] Spiperone); format: cell membranes, CHO-K1, Membrane; conditions: cho-k1; Not Active = under 50% inhibition at 10 µM
T3 sequence (P21917 whole entry): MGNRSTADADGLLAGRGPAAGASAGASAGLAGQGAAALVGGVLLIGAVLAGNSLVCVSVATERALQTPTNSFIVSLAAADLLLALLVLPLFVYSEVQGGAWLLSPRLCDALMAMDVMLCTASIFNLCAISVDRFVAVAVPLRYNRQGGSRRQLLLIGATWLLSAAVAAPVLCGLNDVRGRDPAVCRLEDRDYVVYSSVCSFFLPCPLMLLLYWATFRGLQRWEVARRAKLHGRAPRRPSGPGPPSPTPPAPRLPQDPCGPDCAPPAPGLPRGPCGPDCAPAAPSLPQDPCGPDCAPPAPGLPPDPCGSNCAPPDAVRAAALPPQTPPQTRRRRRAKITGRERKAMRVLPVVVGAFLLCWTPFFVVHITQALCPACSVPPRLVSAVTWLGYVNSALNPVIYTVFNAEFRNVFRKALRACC

Caspase-1 = target: T4, Caspase-1 (Homo sapiens, UniProt P29466); set-up: species or system Escherichia coli
T4 sequence (P29466 whole entry): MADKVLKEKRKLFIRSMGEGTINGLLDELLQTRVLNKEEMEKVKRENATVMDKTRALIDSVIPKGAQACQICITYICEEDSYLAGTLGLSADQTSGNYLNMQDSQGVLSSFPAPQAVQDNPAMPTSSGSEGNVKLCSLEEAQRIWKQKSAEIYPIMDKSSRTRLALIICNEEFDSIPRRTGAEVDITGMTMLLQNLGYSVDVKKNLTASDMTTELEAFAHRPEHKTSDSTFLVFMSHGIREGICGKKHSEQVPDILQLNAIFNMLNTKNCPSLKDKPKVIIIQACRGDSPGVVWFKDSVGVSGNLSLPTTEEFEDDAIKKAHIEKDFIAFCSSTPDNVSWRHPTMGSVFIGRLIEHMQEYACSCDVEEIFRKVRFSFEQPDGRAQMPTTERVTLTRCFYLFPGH

Voltage-gated inwardly rectifying potassium channel KCNH2, sequence (Q12809 whole entry): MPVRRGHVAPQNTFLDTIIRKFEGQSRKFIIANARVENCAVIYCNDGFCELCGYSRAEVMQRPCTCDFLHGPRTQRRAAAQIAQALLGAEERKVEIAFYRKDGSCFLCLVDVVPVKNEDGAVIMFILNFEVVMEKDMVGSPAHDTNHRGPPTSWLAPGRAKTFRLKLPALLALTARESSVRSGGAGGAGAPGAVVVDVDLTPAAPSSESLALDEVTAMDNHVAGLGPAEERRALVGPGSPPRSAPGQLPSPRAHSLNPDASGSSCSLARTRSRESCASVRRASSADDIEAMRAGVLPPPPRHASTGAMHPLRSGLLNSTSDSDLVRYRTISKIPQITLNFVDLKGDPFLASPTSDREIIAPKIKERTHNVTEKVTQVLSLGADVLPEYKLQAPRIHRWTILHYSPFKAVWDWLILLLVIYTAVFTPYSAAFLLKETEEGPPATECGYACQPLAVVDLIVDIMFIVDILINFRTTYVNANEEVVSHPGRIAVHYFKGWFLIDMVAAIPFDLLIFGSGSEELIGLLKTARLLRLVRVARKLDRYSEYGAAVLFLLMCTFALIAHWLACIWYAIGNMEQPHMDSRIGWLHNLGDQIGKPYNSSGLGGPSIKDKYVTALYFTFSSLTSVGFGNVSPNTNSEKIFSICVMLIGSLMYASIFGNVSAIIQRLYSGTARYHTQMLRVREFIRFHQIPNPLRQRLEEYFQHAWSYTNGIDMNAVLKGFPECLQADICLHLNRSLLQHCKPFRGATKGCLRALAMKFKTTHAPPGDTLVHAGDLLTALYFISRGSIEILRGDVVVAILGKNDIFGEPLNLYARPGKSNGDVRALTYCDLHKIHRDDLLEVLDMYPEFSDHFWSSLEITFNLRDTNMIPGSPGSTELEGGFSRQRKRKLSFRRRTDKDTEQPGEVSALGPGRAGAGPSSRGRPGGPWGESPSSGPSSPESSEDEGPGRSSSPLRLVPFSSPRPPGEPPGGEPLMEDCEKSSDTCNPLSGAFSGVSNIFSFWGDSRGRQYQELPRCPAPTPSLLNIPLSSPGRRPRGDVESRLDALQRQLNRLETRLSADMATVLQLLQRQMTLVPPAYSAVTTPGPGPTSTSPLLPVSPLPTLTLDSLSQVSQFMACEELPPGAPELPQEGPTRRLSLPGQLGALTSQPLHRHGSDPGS

| Compound | IC50 [1] | Ki [1] | IC50 (Adenosine receptor A3; cho-k1) | IC50 ([2]; mdck) | IC50 (Cytochrome P450 2C9) | Ki (Cytochrome P450 2C9) | IC50 (Melanocortin receptor 3) | IC50 [3] | IC50 (D(4) dopamine receptor) | IC50 (Caspase-1) | IC50 (Adenosine receptor A3; read-out: IC50) | Ki (Adenosine receptor A3; read-out: Ki) | IC50 ([2]; read-out: IC50) | Ki ([2]; read-out: Ki) | Ki (Adenosine receptor A3; cho-k1) | Ki ([2]; mdck) | Ki (Melanocortin receptor 3) | Ki [3] | Ki (D(4) dopamine receptor) | Ki (Caspase-1) |
| --- | --- | --- | --- | --- | --- | --- | --- | --- | --- | --- | --- | --- | --- | --- | --- | --- | --- | --- | --- | --- |
| O=C1c2ccccc2C(=O)C1c1ccccc1 [PHENINDIONE] | Not Active | Not Active | Not Active | Not Active | Not Active | Not Active | Not Active | Not Active | Not Active | Not Active |  |  |  |  |  |  |  |  |  |  |
| OC[C@H]1O[C@@H]2O[C@H]3[C@H](O)[C@@H](O)[C@@H](O[C@H]4[C@H](O)[C@@H](O)[C@@H](O[C@H]5[C@H](O)[C@@H](O)[C@@H](O[C@H]6[C@H](O)[C@@H](O)[C@@H](O[C@H]7[C@H](O)[C@@H](O)[C@@H](O[C@H]8[C@H](O)[C@@H](O)[C@@H](O[C@H]1[C@H](O)[C@H]2O)O[C@@H]8CO)O[C@@H]7CO)O[C@@H]6CO)O[C@@H]5CO)O[C@@H]4CO)O[C@@H]3CO [BETADEX] | Not Active | Not Active | Not Active | Not Active | Not Active | Not Active | Not Active | Not Active | Not Active | Not Active |  |  |  |  |  |  |  |  |  |  |
| CNC[C@H](O)c1ccc(O)c(O)c1 [EPINEPHRINE] | Not Active | Not Active | Not Active | Not Active | Not Active | Not Active | Not Active | Not Active | Not Active | Not Active |  |  |  |  |  |  |  |  |  |  |
| CCC1(c2ccccc2)C(=O)NC(=O)NC1=O [PHENOBARBITAL] | Not Active | Not Active | Not Active | Not Active | Not Active | Not Active | Not Active | Not Active | Not Active | Not Active |  |  |  |  |  |  |  |  |  |  |
| CC1(COc2ccc(CC3SC(=O)NC3=O)cc2)CCCCC1 (stereo not drawn) [CIGLITAZONE] | Not Active | Not Active |  |  | Not Active | Not Active | Not Active | Not Active | Not Active | Not Active | 3.05 µM | 1.72 µM | 2.22 µM | 2.2 µM |  |  |  |  |  |  |
| OC[C@H]1O[C@@H]2O[C@H]3[C@H](O)[C@@H](O)[C@@H](O[C@H]4[C@H](O)[C@@H](O)[C@@H](O[C@H]5[C@H](O)[C@@H](O)[C@@H](O[C@H]6[C@H](O)[C@@H](O)[C@@H](O[C@H]7[C@H](O)[C@@H](O)[C@@H](O[C@H]1[C@H](O)[C@H]2O)O[C@@H]7CO)O[C@@H]6CO)O[C@@H]5CO)O[C@@H]4CO)O[C@@H]3CO [ALFADEX] | Not Active | Not Active | Not Active | Not Active | Not Active | Not Active | Not Active | Not Active | Not Active | Not Active |  |  |  |  |  |  |  |  |  |  |
| Nc1nc(F)nc2c1ncn2[C@@H]1O[C@H](CO)[C@@H](O)[C@@H]1O [FLUDARABINE] | Not Active | Not Active | Not Active | Not Active | Not Active | Not Active | Not Active | Not Active | Not Active | Not Active |  |  |  |  |  |  |  |  |  |  |
| O=C(O)CO [GLYCOLIC ACID] | Not Active | Not Active | Not Active | Not Active | Not Active | Not Active | Not Active | Not Active | Not Active | Not Active |  |  |  |  |  |  |  |  |  |  |
| O=C(NCCN1CCOCC1)c1ccc(Cl)cc1 [MOCLOBEMIDE] | Not Active | Not Active | Not Active | Not Active | Not Active | Not Active | Not Active | Not Active | Not Active | Not Active |  |  |  |  |  |  |  |  |  |  |
| CARBOXYMETHYLCELLULOSE | Not Active | Not Active | Not Active | Not Active | Not Active | Not Active | Not Active | Not Active | Not Active | Not Active |  |  |  |  | Not Active | Not Active | Not Active | Not Active | Not Active | Not Active |
| COc1ccc(C[C@H](N)C(=O)N[C@H]2[C@@H](O)[C@H](n3cnc4c(N(C)C)ncnc43)O[C@@H]2CO)cc1 [PUROMYCIN] | Not Active | Not Active | Not Active | Not Active | Not Active | Not Active | Not Active | Not Active | Not Active | Not Active |  |  |  |  |  |  |  |  |  |  |
